Source: PubChem BioAssay (NCI)
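In this assay, cells in 96-well plates receive the compound at five concentrations for 48 hours. Endpoints are linearly interpolated between the surrounding concentrations. Here, GI50 denotes the concentration required for 50% inhibition of growth. Definition used: TGI = concentration required for complete inhibition of growth.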

Assays:
Assay in all cases: NCI tumour cell line growth inhibition, 48 h
[1] = test system: A549 NSCLC
[2] = test system: DU-145 prostate
[3] = test system: EKVX NSCLC
[4] = test system: HCC-2998 colon
[5] = test system: HCT-15 colon
[6] = test system: NCI-H522 lung
[7] = test system: OVCAR-4 ovarian
[8] = test system: OVCAR-5 ovarian
[9] = test system: RPMI-8226 leukemia
[10] = test system: SN12C renal

Compound	GI50 [1] [µM]	TGI [1] [µM]	GI50 [2] [µM]	TGI [2] [µM]	GI50 [3] [µM]	TGI [3] [µM]	GI50 [4] [µM]	TGI [4] [µM]	GI50 [5] [µM]	TGI [5] [µM]	GI50 [6] [µM]	TGI [6] [µM]	GI50 [7] [µM]	TGI [7] [µM]	GI50 [8] [µM]	TGI [8] [µM]	GI50 [9] [µM]	TGI [9] [µM]	GI50 [10] [µM]	TGI [10] [µM]
CCN1CCC(CC(=O)Nc2n[nH]c3nc(-c4cccs4)c(Br)cc23)CC1	8.82	> 25	8.5	> 25	> 25	> 25	12	> 25	6.89	> 20.6	6.74	> 16.8	11.5	> 25	15.9	> 25	9.42	24.8	9.51	> 25
Cc1cc(N=C2C=C(Nc3cc(C)on3)C(=O)c3ccccc32)no1		> 100		> 100		> 100		> 100		> 100		> 100		> 100		> 100		> 100		> 100
O=[N+]([O-])c1cccc(-c2cc(-c3cc(Br)ccc3O)[nH]n2)c1	2.42	6.68	3.44	12.3	2	7.91	2.96	12.1	2.53	12.9	1.49	3.66	3.45	17.3	3.81	14.9	1.47	4.75	3.19	12.4
